Source: PubChem BioAssay (NCI)
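A five-concentration, 48-hour dose response in 96-well plates underlies each endpoint, interpolated linearly between surrounding concentrations. The concentration for full growth arrest is given as TGI.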 Where a SMILES comes first, the peptide text is derived from it. [ ]: non-standard residue; d: D form. The star is where a group is joined. ξ: configuration not given here. Propanoyl(3-(4-MeO-Ph)) = COc1ccc(CCC(=O)*)cc1; Thr(3ξ) = CC(O)[C@H](N)C(=O)O; dNMeL = CN[C@H](CC(C)C)C(=O)O; OBn = c1ccc(CO*)cc1; ξLac = CC(O)C(=O)O

Columns and labels:
Experiment in all cases: DTP human tumour cell line panel, 48 h
[1] = test system: MOLT-4 leukemia
[2] = test system: MCF7 breast
[3] = test system: HOP-62 NSCLC
[4] = test system: 786-0 renal
[5] = test system: NCI-H522 lung
[6] = test system: COLO 205 colon
[7] = test system: NCI-H460 lung
[8] = test system: OVCAR-4 ovarian
[9] = test system: SR leukemia
[10] = test system: HCT-15 colon
[11] = test system: ACHN renal
[12] = test system: LOX IMVI melanoma
[13] = test system: HL-60(TB) leukemia
[14] = test system: RPMI-8226 leukemia
[15] = test system: KM12 colon
[16] = test system: EKVX NSCLC
[17] = test system: SF-268 CNS
[18] = test system: NCI/ADR-RES ovarian
[19] = test system: MDA-MB-231 breast

Row | SMILES | TGI [1] [µM] | TGI [2] [µM] | TGI [3] [µM] | TGI [4] [µM] | TGI [5] [µM] | TGI [6] [µM] | TGI [7] [µM] | TGI [8] [µM] | TGI [9] [µM] | TGI [10] [µM] | TGI [11] [µM] | TGI [12] [µM] | TGI [13] [µM] | TGI [14] [µM] | TGI [15] [µM] | TGI [16] [µM] | TGI [17] [µM] | TGI [18] [µM] | TGI [19] [µM]
1 | CCOC(=O)C1(C(=O)OCC)CC(=O)[C@@]2(C1)OCC[C@H]1OC(=O)C[C@H]12 | > 100 | > 100 | > 100 | > 100 | > 100 | > 100 | > 100 | > 100 | > 100 | > 100 | > 100 | > 100 | > 100 | > 100 | > 100 | > 100 | > 100 | > 100 | > 100
2 | O=c1[nH]c(Nc2cccc(Br)c2)nc2nc[nH]c12 | > 100 | > 100 | – | > 100 | > 100 | > 100 | > 100 | > 100 | > 100 | > 100 | > 100 | > 100 | > 100 | > 100 | > 100 | > 100 | > 100 | > 100 | > 100
3 | CC1(C)N=C(/C=N/O)C(C)(C)N1O | > 100 | > 100 | > 100 | > 100 | > 100 | > 100 | > 100 | > 100 | > 100 | > 100 | > 100 | > 100 | > 100 | > 100 | > 100 | > 100 | > 100 | > 100 | > 100
4 | COc1ccc(C2SCC(=O)N2NC(=O)C(C)Oc2ccccc2Cl)cc1 (centres undefined) | 79.5 | > 100 | – | > 100 | > 100 | 64.4 | > 100 | > 100 | 58.1 | > 100 | > 100 | 62 | 35.2 | > 100 | > 100 | > 100 | > 100 | > 100 | > 100
5 | COc1ccc(CCC(=O)OC(C)[C@H](NC(=O)[C@@H](CC(C)C)N(C)C(=O)[C@@H]2CCCN2C(=O)C(C)O)C(=O)OCc2ccccc2)cc1 (some centres undefined) (H-[ξLac]P[dNMeL][Thr(3ξ)](Propanoyl(3-(4-MeO-Ph)))-OBn) | 63 | > 100 | > 100 | > 100 | 50.4 | 39 | > 100 | > 100 | > 100 | > 100 | > 100 | 41.4 | 72.6 | 80.6 | 79.4 | > 100 | 99.5 | > 100 | 46.5
6 | Cc1ccc(/C=N/Nc2nncc3ccccc23)s1 | > 100 | > 100 | > 77.4 | > 95.1 | > 100 | > 100 | > 100 | > 93.1 | > 100 | > 100 | > 100 | > 100 | > 100 | > 100 | > 100 | > 100 | > 100 | > 100 | > 82
7 | CC(C)NC(=O)OCc1c(COC(=O)NC(C)C)c(-c2ccc[n+](COC(=O)C3CC3)c2)n2c1CCC2 | > 100 | > 100 | > 100 | > 100 | 63.1 | > 100 | > 100 | > 100 | > 100 | > 100 | 82.7 | > 100 | > 100 | > 100 | > 100 | > 100 | > 100 | > 100 | > 100
8 | COc1ccc(C(C#N)NCCCCCCNC(C#N)c2ccc(OC)cc2)cc1 (centres undefined) | > 100 | > 100 | > 100 | > 100 | > 100 | > 100 | – | > 100 | > 100 | > 100 | > 100 | > 100 | > 100 | > 100 | > 100 | > 100 | > 100 | > 100 | > 100
9 | CC1=C(C(=O)Nc2ccccc2)C(c2ccc(C)o2)C(C#N)=C(SCc2ccccc2)N1 (centres undefined) | > 100 | > 100 | > 100 | > 100 | > 100 | > 100 | > 100 | > 100 | > 68.6 | > 100 | > 100 | > 100 | > 100 | > 100 | > 100 | > 100 | > 100 | > 100 | > 100
10 | O=c1c(O)c(-c2cc(O)c(O)cc2O)oc2cc(O)c(C3OC(CO)C(O)C(O)C3O)c(O)c12 (centres undefined) | > 100 | > 100 | > 100 | > 100 | > 100 | – | > 100 | > 100 | > 100 | > 100 | > 100 | > 100 | > 100 | > 100 | > 100 | > 100 | > 100 | > 100 | > 100
11 | O=CC1OC(=O)c2cc(O)c(O)c(O)c2-c2c(cc(O)c(O)c2O)C(=O)OC1C(O)C(O)CO (centres undefined) | 56.8 | 39.4 | > 100 | > 100 | > 100 | > 100 | > 100 | 37.8 | 51.3 | > 100 | > 100 | 31.4 | > 100 | 72.4 | > 100 | > 100 | > 100 | > 100 | 35.8
12 | COc1cc(C2SCC(=O)N2c2ccc(Cl)cc2)cc(I)c1O (centres undefined) | > 100 | > 100 | > 100 | > 100 | > 100 | > 23.7 | > 100 | > 67.5 | > 100 | > 100 | > 100 | > 100 | > 100 | > 100 | > 100 | > 100 | > 100 | > 100 | > 100
13 | O[C@H]1[C@H](O)[C@H](O)CN2CCC[C@@H](O)[C@H]12 | > 100 | > 100 | > 100 | > 100 | > 100 | > 100 | – | > 100 | > 100 | > 100 | > 100 | > 100 | > 100 | > 100 | > 100 | > 100 | > 100 | > 100 | > 100
14 | CC(=O)O[C@H]1C(=O)[C@@]2(C)[C@H]([C@H](OC(=O)c3ccccc3)[C@]3(O)C[C@H](OC(=O)[C@H](O)[C@@H](NC(=O)CC(C)C)c4ccccc4)C(C)=C1C3(C)C)[C@]1(OC(C)=O)CO[C@@H]1C[C@@H]2O | > 10 | > 10 | > 10 | > 10 | 0.0135 | 0.0112 | > 10 | > 10 | 0.138 | > 10 | > 10 | > 10 | 0.00899 | – | – | > 10 | > 10 | > 10 | > 10
15 | N#CC(N=Nc1ccccc1)c1nc2ccccc2o1 (centres undefined) | > 100 | > 100 | 39 | 45.5 | > 100 | 68.7 | > 100 | 37.9 | > 100 | > 100 | 56.4 | – | > 100 | > 100 | > 100 | > 100 | 59.9 | 64 | 57.4
16 | Cc1ccc(S(=O)(=O)/N=C(\[O-])C2=C(c3ccccc3)NN(C)c3nc4cccc[n+]4nc32)cc1 | > 100 | > 100 | – | > 100 | > 100 | 53.3 | > 100 | > 100 | > 100 | > 100 | > 100 | > 100 | > 100 | > 100 | > 100 | > 100 | > 100 | > 100 | > 100
17 | COc1cc2c(cc1OC)C(Cc1ccccc1CCCl)=NCC2 | > 100 | > 100 | > 100 | > 100 | > 100 | > 100 | > 100 | > 100 | > 100 | > 100 | > 100 | – | 97.2 | 98.1 | > 100 | > 100 | > 100 | > 100 | > 100
18 | O=C(CCc1ccccc1CO)NCCc1ccccc1 | > 100 | > 100 | > 100 | > 100 | > 100 | > 100 | > 100 | > 100 | > 100 | > 100 | > 100 | – | > 100 | > 100 | > 100 | > 100 | > 100 | > 100 | > 100
19 | Cc1ccc(Nc2nc(=O)[nH]c(=O)[nH]2)cc1N=[N+]=[N-] | > 100 | > 100 | > 100 | > 100 | > 100 | > 100 | – | > 100 | > 100 | > 100 | > 100 | > 100 | > 100 | > 100 | > 100 | > 100 | > 100 | > 100 | > 100
